# Data from article PMC12064818, “A general assay platform to study protein pharmacology using ligand-dependent structural dynamics” (Nature Communications, 2025).
# Where two headings read alike, the source gives them in different places.
# Assays:
# [1] = biological target: FLuc-C-NLuc (firefly luciferase) (Photinus pyralis, UniProt P08659, form not given/L550V); experiment: SDR assay, FLuc-C-NLuc; conditions: - ATP
# [2] = biological target: T1, FLuc-C-HiBiT (firefly luciferase) (Photinus pyralis, UniProt P08659, form not given/L550V); experiment: SDR assay, FLuc-C-HiBiT; conditions: for % Activity (max response, + ATP) / % Activity (max response, - ATP): SDR max. response, clade S; for pSDR50, SDR (+ ATP) / pSDR50, SDR (-ATP) / EC50: FLuc-C-HiBiT qHTS; for Pearson r (SDR+ATP vs. E): correlation of SDR (+ATP) with the FLuc enzymatic assay (E); for Pearson r (SDR-ATP vs. E): correlation of SDR (-ATP) with the FLuc enzymatic assay (E)
# T1 sequence (P08659 2-550 L550V, form open): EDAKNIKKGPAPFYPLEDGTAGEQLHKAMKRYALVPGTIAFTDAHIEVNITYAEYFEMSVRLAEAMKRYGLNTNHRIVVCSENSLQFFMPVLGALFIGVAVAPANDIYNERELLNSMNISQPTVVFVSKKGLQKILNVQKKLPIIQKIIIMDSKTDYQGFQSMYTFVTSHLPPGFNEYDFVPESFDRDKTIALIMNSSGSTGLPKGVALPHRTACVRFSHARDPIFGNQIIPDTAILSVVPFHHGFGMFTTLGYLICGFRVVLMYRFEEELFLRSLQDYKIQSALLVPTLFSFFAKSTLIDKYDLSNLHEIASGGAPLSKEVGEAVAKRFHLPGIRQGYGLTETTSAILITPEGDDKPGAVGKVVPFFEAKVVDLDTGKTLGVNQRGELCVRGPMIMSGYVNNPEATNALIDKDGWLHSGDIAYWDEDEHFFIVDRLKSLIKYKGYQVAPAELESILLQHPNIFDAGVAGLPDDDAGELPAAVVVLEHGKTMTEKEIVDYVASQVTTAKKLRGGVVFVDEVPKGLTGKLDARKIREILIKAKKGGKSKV
# P. pyralis FLuc = P. pyralis FLuc (Photinus pyralis, UniProt P08659); experiment: FLuc enzymatic luminescence assay, P. pyralis FLuc; type: biochemical; set-up: CC-v2: scale not given here; conditions: for Efficacy (%) FLuc E / IC50: FLuc enzymatic assay; for Efficacy (%) FLuc E: Clade S follow-up; for CC-v2 / Efficacy / Hill Coef / Inf Activity / Max Resp / Zero Activity / AC50: Sample Data Type FLuc-Km; for IC50: read-out: IC50 or SDR50 (mM) FLuc E
# P. pyralis FLuc, sequence (P08659 whole entry): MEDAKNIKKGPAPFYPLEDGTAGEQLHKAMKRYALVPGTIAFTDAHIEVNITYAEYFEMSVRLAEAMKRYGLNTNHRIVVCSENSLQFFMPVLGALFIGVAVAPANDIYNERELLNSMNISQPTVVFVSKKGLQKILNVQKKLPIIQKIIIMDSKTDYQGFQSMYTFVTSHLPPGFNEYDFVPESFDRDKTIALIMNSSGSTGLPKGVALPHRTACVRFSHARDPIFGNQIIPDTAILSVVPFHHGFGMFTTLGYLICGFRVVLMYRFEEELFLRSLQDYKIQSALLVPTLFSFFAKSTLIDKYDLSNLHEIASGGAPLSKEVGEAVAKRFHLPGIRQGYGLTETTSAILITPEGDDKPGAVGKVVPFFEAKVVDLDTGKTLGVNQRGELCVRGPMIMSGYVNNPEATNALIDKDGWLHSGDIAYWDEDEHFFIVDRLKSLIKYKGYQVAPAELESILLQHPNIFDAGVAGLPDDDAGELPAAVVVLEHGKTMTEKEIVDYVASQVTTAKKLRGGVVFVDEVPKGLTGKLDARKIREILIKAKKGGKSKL
# Procedure: (§1) The enzyme activity of FLuc-N-HiBiT, FLuc-C-HiBiT, and FLuc-C-NLuc was measured similar to P. pyralis firefly luciferase (FLuc) as previously described. […] Compounds and controls were added to each plate as described in Supplementary Data 8 with a Hornet pintool system (Wako Automation). Compounds were incubated with respective enzymes for 30–60 min at room temperature protected from light and covered by solid metal lid to prevent evaporation. […] Luciferin was incubated with FLuc enzyme for 5 min before FLuc activity was then measured on a ViewLux CCD imager (PerkinElmer), with exposure times up to ten seconds with medium to high gain settings. Data were normalized to average no enzyme control as 100% enzyme inhibition and average DMSO neutral control. See Supplementary Table 4 for additional details.
# Assays were run in the presence (solid symbols) or absence
# (open symbols) of 10 µM ATP. Corresponding SMIL E S for NC GC IDs and source data are provided in
# Supplementary Data 3 and as a Source Data file. 10
# (§2) Supplementary Table 4. Protocol for Firefly luciferase (FLuc) and NanoLuc (NLuc) enzymatic
# (§3) Supplementary Table 4: Protocol for Firefly luciferase (FLuc) and NanoLuc (NLuc) enzym atic lum inescence assay
# (§4) Firefly luciferase (FLuc) enzym atic lum inescence assay
# (§5) Sequence Param eter Value Description
# (§6) No enzym e control (colum n 1) and enzym e solution (1- 10 nM FLuc enzym e) in FLuc assay
# (§7) 1 Reagent 4 µLbuffer; white/solid bottom , m edium bind, high base plates (Greiner), dispensed with BioRaptr
# (§8) com pounds transferred to respective colum ns with Pintool
# (§9) 2b Test Com pounds 23 nLconcentration range) in colum ns 5- 48; com pounds transferred to respective wells with
# (§10) 3 Incubation 30 m in Incubate enzym e + com pounds at am bient tem p for 30 m in, protected from light
# (§11) 4 Reagent 3 µLAdd 3 µL of D-luciferin substrate solution to each well (final concentration 10 µM); dispensed
# (§12) 5 Detector ViewLux Read plate lum inescence (Exposure = 1- 10 sec; Gain = Medium -high; Speed = Slow;
# (§13) Dispensing solution was diluted in 1X PBS, pH 7.4. […]
# [3] = biological target: T1, FLuc-C-HiBiT (firefly luciferase); experiment: Firefly luciferase (FLuc) enzymatic luminescence assay, FLuc-C-HiBiT; type: biochemical; conditions: FLuc-C-HiBiT qHTS, FLuc enzymatic assay; for IC50: read-out: IC50, FLuc E
# Procedure: as §1, §2, §3, §4, §5, §6, §7, §8, §9, §10, §11, §12, §13
# FLuc-C-HiBiT = biological target: T2, FLuc-C-HiBiT (Photinus pyralis, UniProt P08659); experiment: biochemical; conditions: enzyme activity, 10 uM ATP; read-out: IC50 or SDR50 (mM) / FLuc E
# T2 construct: firefly luciferase with C-terminal HiBiT tag, E. coli expressed
# T2 sequence (P08659 whole entry, looked up): as the sequence (P08659 whole entry) above
# [4] = read-out: SDR50, SDR (+ ATP), SDR assay with ATP
# [5] = read-out: SDR50, SDR (-ATP), SDR assay without ATP
# FLuc-C-NLuc (firefly luciferase), sequence (P08659 2-550 L550V, form open): as the sequence (P08659 2-550 L550V, form open) above
smiles,measurement,setting,value
CC(C)CCNC(=O)C1CCN(C(=O)c2ncn3c2COC(c2ccc(F)cc2)C3)CC1 (centres unmarked) [NCGC00423180-01],Efficacy (%) FLuc-C-NLuc SDR (-ATP),[1],0.00%
same,"% Activity (max response, + ATP)",[2],35.19%
same,"% Activity (max response, - ATP)",[2],0.00%
same,Efficacy (%) FLuc E,P. pyralis FLuc,-22.97%
same,CC-v2,P. pyralis FLuc,4
same,Efficacy,P. pyralis FLuc,-22.97
same,Hill Coef,P. pyralis FLuc,2.25
same,Inf Activity,P. pyralis FLuc,-22.47
same,Max Resp,P. pyralis FLuc,-18.73
same,Zero Activity,P. pyralis FLuc,0.50
CSc1ccc(/C=C/c2nc3ccccc3n2[S+](=O)([O-])c2ccc(Br)cc2)cc1 [NCGC00108248-01],"pIC50, FLuc E",[3],6.155
same,IC50,[3],0.7 µM
same,"pSDR50, SDR (+ ATP)",[2]; SDR assay with ATP,5.355
same,"pSDR50, SDR (-ATP)",[2]; SDR assay without ATP,5.105
same,Pearson r (SDR+ATP vs. E),[2],0.917
same,Pearson r (SDR-ATP vs. E),[2],0.903
same,EC50,[2]; [4],4.42 µM
same,EC50,[2]; [5],7.85 µM
CSc1ccc(/C=C/c2nc3ccccc3n2[S+](=O)([O-])c2cccc(Cl)c2)cc1 [NCGC00108250-01],"pIC50, FLuc E",[3],6.255
same,IC50,[3],0.556 µM
same,"pSDR50, SDR (+ ATP)",[2]; SDR assay with ATP,5.705
same,"pSDR50, SDR (-ATP)",[2]; SDR assay without ATP,5.705
same,Pearson r (SDR+ATP vs. E),[2],0.941
same,Pearson r (SDR-ATP vs. E),[2],0.919
same,EC50,[2]; [4],1.97 µM
same,EC50,[2]; [5],1.97 µM
CCC(CC)NC(=O)C1CCN(C(=O)c2ncn3c2COC(c2ccc(F)cc2)C3)CC1 (centres unmarked) [NCGC00430454-01],Efficacy (%) FLuc-C-NLuc SDR (-ATP),[1],0.00%
same,"% Activity (max response, + ATP)",[2],9.00%
same,"% Activity (max response, - ATP)",[2],0.00%
same,Efficacy (%) FLuc E,P. pyralis FLuc,-16.84%
same,CC-v2,P. pyralis FLuc,4
same,Efficacy,P. pyralis FLuc,-16.84
same,Hill Coef,P. pyralis FLuc,1.51
same,Inf Activity,P. pyralis FLuc,-9.34
same,Max Resp,P. pyralis FLuc,-6.95
same,Zero Activity,P. pyralis FLuc,7.50
CCOc1ccc(/C=C/c2nc3ccccc3n2[S+](=O)([O-])c2cccc(Cl)c2)cc1 [NCGC00108246-01],"pIC50, FLuc E",[3],6.405
same,IC50,[3],0.394 µM
same,"pSDR50, SDR (+ ATP)",[2]; SDR assay with ATP,5.605
same,"pSDR50, SDR (-ATP)",[2]; SDR assay without ATP,5.505
same,Pearson r (SDR+ATP vs. E),[2],0.892
same,Pearson r (SDR-ATP vs. E),[2],0.888
same,EC50,[2]; [4],2.48 µM
same,EC50,[2]; [5],3.13 µM
Cc1ccc(C2Cn3cnc(C(=O)N4CCC(C(=O)NCCC(C)C)CC4)c3CO2)cc1 (centres unmarked) [NCGC00422121-01],Efficacy (%) FLuc-C-NLuc SDR (-ATP),[1],0.00%
same,"% Activity (max response, + ATP)",[2],49.59%
same,"% Activity (max response, - ATP)",[2],0.00%
same,Efficacy (%) FLuc E,P. pyralis FLuc,-26.32%
same,IC50,P. pyralis FLuc,0.0139 mM
same,AC50,P. pyralis FLuc,13.9 µM
same,CC-v2,P. pyralis FLuc,-2.4
same,Efficacy,P. pyralis FLuc,-26.32
same,Hill Coef,P. pyralis FLuc,1.21
same,Inf Activity,P. pyralis FLuc,-27.95
same,Max Resp,P. pyralis FLuc,-21.63
same,Zero Activity,P. pyralis FLuc,-1.63
CC(C)NC(=O)C1CCN(C(=O)c2ncn3c2COC(c2ccccc2)C3)CC1 (centres unmarked) [NCGC00449767-01],Efficacy (%) FLuc-C-NLuc SDR (-ATP),[1],0.00%
same,"% Activity (max response, + ATP)",[2],350.87%
same,"% Activity (max response, - ATP)",[2],0.00%
same,IC50,FLuc-C-HiBiT,0.00351 mM
same,Efficacy (%) FLuc E,P. pyralis FLuc,-88.78%
same,IC50,P. pyralis FLuc,0.00248 mM
same,AC50,P. pyralis FLuc,2.48 µM
same,CC-v2,P. pyralis FLuc,-1.1
same,Efficacy,P. pyralis FLuc,-88.78
same,Hill Coef,P. pyralis FLuc,1.10
same,Inf Activity,P. pyralis FLuc,-90.78
same,Max Resp,P. pyralis FLuc,-86.46
same,Zero Activity,P. pyralis FLuc,-2.01
COc1ccc(-c2cc3c(cn2)CN(Cc2cccnc2)CCN3)cc1OC [NCGC00411110-01],IC50,FLuc-C-HiBiT,0.0143 mM
CC(C)c1ccc(C(=O)Nc2cccc3cccnc23)cc1 [NCGC00103193-01],IC50,FLuc-C-HiBiT,0.00989 mM
C[C@H](C(=O)N1CCCC1)C1CC[C@@]2(C)Cc3sc(-c4ccccc4)nc3[C@@H](C)[C@@H]2[C@H]1O (some centres unmarked) [NCGC00401417-01],IC50,FLuc-C-HiBiT,0.00197 mM
OCc1cn(CC2CCN(c3ncnc4[nH]cnc34)CC2)nn1 [NCGC00425096-01],IC50,FLuc-C-HiBiT,> 0.03 mM
O=C(Nc1ccccc1)C1CCN(C(=O)N2CC3CC(C2)[C@H]2CCCC(=O)N2C3)CC1 (some centres unmarked) [NCGC00428953-01],IC50,FLuc-C-HiBiT,> 0.03 mM
Cc1cc(-c2cc3c(cn2)CN(CC(C)C)CCN3)ccn1 [NCGC00411077-01],IC50,FLuc-C-HiBiT,0.0161 mM
Fc1cc(Nc2cnc3ccc(-c4ccccc4)nn23)cc(N2CCOCC2)c1 [NCGC00412489-01],IC50,FLuc-C-HiBiT,0.0161 mM
COc1ccc2cc(C3CN(C(=O)Cc4ccc(O)cc4)CCO3)ccc2c1 (centres unmarked) [NCGC00430869-01],IC50,FLuc-C-HiBiT,0.00989 mM
COc1ccc(NC(=O)Nc2nnc(C)s2)cc1 [NCGC00106652-01],IC50,FLuc-C-HiBiT,0.0111 mM
CNC(=O)c1cccc(-c2cnc(Nc3ccc(Cl)cn3)c3c2CCO3)c1 [NCGC00412786-01],IC50,FLuc-C-HiBiT,0.0101 mM
Oc1c(Br)cc(Br)cc1-c1nc2ccccc2s1 [NCGC00098096-01],IC50,FLuc-C-HiBiT,0.0124 mM
COc1cccc(CNC(=O)Nc2cccc(-c3ccc(N4CCOCC4)nn3)c2)c1 [NCGC00427600-01],IC50,FLuc-C-HiBiT,0.00279 mM
CC(=O)Nc1cccc(-c2ccc(COc3ccc4c(cnn4CCC(=O)O)c3)cc2)c1 [NCGC00418146-01],IC50,FLuc-C-HiBiT,0.00101 mM
CCOc1ccc(-n2nc(CO)c(C(=O)NCc3ccccn3)n2)cc1 [NCGC00117131-01],IC50,FLuc-C-HiBiT,0.0111 mM
Cn1ccnc1CN1CCc2nc(C(=O)Nc3ccccc3)oc2CC1 [NCGC00413360-01],IC50,FLuc-C-HiBiT,0.0202 mM
CCCc1nn2cc(-c3ccc(C)c(C)c3)nc2s1 [NCGC00117454-01],IC50,FLuc-C-HiBiT,0.000624 mM
CCc1cccc(NCc2ccccc2-c2nnc(-c3ccccc3Cl)o2)c1 [NCGC00107400-01],IC50,FLuc-C-HiBiT,> 0.03 mM
